Several values for one entry are separate records, joined by “and”; a condition that tells them apart may be missing. Equal entries are not always repeated.
Key:
Acetylcholinesterase = Acetylcholinesterase (Homo sapiens, UniProt P22303); assay: Inhibition of AChE (unknown origin)
Cholinesterase = Cholinesterase (Homo sapiens, UniProt P06276); assay: Inhibition of BuChE (unknown origin)
[1] = Inhibition of NMDA receptor (unknown origin); set-up: species or system Homo sapiens
[2] = target: cGMP-specific 3',5'-cyclic phosphodiesterase (Homo sapiens, UniProt O76074); assay: Inhibition of PDE5 (unknown origin)
Histone deacetylase = assay: Inhibition of HDAC (unknown origin); type: protein assay, Homo sapiens
[3] = target: T1, Amine oxidase [flavin-containing] B (Homo sapiens, UniProt P27338); assay: Inhibition of MAO-B (unknown origin)
T1 sequence (P27338 whole entry): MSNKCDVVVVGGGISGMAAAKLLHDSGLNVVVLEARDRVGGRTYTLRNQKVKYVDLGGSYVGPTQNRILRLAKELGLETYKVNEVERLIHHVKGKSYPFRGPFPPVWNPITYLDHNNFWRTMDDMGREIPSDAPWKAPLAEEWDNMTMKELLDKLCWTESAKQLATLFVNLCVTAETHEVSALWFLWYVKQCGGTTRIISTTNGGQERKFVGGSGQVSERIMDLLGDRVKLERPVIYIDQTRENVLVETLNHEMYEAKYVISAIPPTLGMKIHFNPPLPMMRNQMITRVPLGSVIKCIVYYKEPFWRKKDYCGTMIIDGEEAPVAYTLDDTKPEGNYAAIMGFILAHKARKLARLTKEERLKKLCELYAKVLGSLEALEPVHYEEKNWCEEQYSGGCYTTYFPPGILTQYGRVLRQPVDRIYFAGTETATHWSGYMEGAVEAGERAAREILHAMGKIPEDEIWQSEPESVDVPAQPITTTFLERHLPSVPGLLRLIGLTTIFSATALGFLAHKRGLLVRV

[4] = target: 5-hydroxytryptamine receptor 2A (Homo sapiens, UniProt P28223); assay: Displacement of [3H]-LSD from human 5-HT2A expressed in human HEK cells assessed as inhibition constant by FLIPR assay; type: cell-based
[5] = target: T2, 5-hydroxytryptamine receptor 3A (Homo sapiens, UniProt P46098); assay: Binding affinity to 5-HT3R (unknown origin) assessed as inhibition constant
T2 sequence (P46098 whole entry): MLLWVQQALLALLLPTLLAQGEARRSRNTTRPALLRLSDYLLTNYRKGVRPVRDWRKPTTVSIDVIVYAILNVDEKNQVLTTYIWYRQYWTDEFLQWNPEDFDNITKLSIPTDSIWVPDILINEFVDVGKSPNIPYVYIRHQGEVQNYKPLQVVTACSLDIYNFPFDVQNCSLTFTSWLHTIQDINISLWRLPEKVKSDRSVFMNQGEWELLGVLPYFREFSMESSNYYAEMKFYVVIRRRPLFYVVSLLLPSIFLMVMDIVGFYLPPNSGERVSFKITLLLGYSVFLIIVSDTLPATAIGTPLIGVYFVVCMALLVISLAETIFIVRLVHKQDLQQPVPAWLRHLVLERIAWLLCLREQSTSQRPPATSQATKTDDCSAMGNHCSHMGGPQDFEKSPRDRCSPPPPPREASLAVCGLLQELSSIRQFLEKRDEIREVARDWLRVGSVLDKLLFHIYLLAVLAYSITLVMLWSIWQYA

[6] = target: 5-hydroxytryptamine receptor 5A (Homo sapiens, UniProt P47898); assay: Binding affinity to 5-HT5AR (unknown origin) assessed as inhibition constant
[7] = target: T3, Amine oxidase [flavin-containing] A (Homo sapiens, UniProt P21397); assay: Binding affinity to MAO-A (unknown origin) assessed as inhibition constant
T3 sequence (P21397 whole entry): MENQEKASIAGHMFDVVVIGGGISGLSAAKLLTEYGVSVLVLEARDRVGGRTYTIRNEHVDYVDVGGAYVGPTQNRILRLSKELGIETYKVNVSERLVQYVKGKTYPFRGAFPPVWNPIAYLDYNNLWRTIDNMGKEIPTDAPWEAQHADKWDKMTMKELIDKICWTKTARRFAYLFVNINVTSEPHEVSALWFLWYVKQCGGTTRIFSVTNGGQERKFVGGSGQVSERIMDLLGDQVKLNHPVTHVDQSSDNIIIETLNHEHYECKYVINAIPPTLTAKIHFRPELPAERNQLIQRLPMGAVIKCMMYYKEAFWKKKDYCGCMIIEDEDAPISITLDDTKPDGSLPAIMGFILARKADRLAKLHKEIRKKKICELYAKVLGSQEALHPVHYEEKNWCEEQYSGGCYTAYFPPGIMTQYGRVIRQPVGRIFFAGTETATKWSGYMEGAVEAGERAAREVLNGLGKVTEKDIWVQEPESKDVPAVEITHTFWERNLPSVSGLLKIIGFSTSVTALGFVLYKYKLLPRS

[8] = target: T3, Amine oxidase [flavin-containing] A; assay: Inhibition of MAO-A (unknown origin)
Histone deacetylase 1 = Histone deacetylase 1 (Homo sapiens, UniProt Q13547); assay: Inhibition of HDAC1 (unknown origin)
[9] = target: T4, Protein deacetylase HDAC6 (Homo sapiens, UniProt Q9UBN7); assay: Inhibition of HDAC6 (unknown origin)
T4 sequence (Q9UBN7 whole entry): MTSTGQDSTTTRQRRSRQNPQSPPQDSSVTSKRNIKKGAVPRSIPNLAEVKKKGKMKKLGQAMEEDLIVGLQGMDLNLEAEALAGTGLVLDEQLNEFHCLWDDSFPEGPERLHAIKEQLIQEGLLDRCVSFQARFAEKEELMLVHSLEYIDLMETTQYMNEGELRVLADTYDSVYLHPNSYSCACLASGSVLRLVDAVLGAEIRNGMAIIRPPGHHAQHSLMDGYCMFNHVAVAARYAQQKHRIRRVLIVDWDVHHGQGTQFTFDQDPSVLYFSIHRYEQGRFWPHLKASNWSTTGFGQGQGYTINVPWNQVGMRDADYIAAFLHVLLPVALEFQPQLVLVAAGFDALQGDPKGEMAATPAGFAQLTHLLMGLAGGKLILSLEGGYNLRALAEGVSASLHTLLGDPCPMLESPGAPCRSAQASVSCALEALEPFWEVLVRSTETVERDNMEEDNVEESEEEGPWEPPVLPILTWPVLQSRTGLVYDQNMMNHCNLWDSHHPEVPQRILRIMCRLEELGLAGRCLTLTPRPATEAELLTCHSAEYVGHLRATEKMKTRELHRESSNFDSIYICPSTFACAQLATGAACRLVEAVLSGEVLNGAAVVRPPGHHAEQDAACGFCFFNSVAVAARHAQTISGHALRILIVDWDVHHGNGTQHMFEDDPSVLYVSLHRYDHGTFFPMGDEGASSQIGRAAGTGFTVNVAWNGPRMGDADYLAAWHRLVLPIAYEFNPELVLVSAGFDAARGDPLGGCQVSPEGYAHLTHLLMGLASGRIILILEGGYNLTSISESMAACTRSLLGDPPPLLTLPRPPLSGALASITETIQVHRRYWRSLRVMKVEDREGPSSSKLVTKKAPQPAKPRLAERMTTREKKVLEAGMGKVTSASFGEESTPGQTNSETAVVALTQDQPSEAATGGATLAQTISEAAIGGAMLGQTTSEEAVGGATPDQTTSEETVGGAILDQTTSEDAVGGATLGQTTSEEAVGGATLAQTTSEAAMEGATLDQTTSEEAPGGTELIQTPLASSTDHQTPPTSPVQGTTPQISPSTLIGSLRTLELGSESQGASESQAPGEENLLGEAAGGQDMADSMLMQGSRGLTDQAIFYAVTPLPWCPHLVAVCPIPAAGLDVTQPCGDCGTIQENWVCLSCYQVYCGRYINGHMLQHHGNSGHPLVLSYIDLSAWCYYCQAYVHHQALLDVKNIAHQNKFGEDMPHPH

[10] = target: Amyloid-beta precursor protein (Homo sapiens) (UniProt P05067); assay: Inhibition of amyloid beta (unknown origin) aggregation at 25 uM relative to control
[11] = target: Glycogen synthase kinase-3 beta (Homo sapiens, UniProt P49841); assay: Inhibition of GSK-3beta (unknown origin)
Chain of Glycogen synthase kinase-3 beta (P49841 whole entry): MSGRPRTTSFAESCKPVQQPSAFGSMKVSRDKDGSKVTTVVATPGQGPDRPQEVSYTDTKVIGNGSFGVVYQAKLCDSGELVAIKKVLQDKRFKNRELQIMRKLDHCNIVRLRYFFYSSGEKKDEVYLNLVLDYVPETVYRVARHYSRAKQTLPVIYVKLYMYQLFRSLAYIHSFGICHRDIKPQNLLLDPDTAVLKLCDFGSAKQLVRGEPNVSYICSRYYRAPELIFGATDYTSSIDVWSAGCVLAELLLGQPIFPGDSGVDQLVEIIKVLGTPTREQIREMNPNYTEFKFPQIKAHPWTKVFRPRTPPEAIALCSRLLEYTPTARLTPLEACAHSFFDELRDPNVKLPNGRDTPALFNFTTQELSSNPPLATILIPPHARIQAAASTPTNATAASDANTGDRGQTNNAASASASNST

Chain of Amyloid-beta precursor protein (Homo sapiens) (P05067 whole entry): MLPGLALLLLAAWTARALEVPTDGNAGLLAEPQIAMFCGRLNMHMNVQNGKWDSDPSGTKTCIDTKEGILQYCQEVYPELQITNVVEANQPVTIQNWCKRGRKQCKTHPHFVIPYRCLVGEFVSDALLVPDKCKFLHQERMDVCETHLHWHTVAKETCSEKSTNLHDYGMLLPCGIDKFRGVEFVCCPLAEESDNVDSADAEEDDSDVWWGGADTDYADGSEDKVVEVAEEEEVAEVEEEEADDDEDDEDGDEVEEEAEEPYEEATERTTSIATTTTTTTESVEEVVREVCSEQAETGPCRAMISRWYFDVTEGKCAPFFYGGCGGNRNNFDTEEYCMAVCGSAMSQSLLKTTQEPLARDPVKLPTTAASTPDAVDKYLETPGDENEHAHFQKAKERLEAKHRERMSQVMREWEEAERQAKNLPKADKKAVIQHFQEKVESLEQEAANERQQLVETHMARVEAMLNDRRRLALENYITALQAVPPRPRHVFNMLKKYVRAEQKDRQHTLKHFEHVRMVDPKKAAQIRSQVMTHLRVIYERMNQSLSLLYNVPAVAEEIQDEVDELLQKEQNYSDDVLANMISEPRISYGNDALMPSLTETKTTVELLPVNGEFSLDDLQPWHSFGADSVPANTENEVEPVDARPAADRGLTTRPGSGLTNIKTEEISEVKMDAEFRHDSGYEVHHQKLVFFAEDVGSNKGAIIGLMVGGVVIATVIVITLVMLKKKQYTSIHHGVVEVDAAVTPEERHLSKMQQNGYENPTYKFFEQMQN
Chain of Acetylcholinesterase (P22303 whole entry): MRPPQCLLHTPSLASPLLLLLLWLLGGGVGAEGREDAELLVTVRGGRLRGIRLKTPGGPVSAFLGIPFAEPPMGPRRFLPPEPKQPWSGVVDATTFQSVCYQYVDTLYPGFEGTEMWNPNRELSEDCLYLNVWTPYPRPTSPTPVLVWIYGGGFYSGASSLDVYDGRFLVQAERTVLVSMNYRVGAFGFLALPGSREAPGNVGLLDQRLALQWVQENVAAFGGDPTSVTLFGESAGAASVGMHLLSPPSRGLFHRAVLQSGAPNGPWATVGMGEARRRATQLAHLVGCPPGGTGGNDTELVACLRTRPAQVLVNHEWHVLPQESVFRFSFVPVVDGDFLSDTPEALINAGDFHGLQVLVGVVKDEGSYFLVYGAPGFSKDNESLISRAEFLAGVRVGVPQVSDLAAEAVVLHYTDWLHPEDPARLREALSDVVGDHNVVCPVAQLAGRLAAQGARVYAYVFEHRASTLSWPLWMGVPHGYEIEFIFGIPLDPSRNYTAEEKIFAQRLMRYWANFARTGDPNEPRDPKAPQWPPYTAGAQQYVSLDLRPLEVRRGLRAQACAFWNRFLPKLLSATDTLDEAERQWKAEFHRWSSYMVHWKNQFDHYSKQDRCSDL
Chain of Cholinesterase (P06276 whole entry): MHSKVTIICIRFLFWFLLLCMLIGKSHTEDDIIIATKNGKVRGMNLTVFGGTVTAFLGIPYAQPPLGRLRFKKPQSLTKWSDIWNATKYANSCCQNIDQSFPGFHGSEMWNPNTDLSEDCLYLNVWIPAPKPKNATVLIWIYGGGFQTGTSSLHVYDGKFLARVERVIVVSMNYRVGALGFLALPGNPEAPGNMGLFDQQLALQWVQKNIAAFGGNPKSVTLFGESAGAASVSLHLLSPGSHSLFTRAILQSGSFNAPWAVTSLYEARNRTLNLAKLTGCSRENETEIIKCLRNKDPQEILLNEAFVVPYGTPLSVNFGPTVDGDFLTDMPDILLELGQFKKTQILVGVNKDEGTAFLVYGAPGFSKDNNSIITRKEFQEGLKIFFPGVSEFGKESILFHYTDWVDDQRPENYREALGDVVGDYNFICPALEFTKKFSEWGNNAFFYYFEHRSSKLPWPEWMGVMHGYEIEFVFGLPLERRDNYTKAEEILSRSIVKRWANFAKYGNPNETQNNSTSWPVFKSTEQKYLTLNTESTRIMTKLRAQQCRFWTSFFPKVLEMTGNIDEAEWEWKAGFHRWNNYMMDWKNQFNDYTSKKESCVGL
Chain of Histone deacetylase 1 (Q13547 whole entry): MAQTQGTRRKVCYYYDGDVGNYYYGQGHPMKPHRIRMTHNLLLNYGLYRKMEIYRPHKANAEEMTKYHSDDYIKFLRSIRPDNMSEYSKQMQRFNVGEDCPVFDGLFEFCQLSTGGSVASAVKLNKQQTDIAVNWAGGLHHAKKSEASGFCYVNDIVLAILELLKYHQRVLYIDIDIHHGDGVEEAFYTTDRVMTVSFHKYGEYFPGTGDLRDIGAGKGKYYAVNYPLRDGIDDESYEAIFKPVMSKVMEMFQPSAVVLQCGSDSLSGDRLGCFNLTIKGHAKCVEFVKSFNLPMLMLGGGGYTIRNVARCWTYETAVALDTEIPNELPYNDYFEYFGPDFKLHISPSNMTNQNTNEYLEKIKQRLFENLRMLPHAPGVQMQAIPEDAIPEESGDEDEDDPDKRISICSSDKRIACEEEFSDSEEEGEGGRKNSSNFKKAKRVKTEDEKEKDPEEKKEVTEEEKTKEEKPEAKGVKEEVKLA
Chain of 5-hydroxytryptamine receptor 5A (P47898 whole entry): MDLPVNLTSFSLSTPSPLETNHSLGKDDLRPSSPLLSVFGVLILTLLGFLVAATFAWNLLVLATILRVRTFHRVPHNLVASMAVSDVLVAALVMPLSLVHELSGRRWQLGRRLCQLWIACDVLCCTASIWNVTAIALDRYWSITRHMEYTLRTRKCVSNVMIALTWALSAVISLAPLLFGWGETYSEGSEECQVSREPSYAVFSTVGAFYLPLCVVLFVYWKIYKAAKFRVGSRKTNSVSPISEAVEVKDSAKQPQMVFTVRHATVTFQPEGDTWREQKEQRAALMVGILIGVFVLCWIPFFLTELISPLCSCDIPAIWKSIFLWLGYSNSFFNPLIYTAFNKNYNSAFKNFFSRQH
Chain of 5-hydroxytryptamine receptor 2A (P28223 whole entry): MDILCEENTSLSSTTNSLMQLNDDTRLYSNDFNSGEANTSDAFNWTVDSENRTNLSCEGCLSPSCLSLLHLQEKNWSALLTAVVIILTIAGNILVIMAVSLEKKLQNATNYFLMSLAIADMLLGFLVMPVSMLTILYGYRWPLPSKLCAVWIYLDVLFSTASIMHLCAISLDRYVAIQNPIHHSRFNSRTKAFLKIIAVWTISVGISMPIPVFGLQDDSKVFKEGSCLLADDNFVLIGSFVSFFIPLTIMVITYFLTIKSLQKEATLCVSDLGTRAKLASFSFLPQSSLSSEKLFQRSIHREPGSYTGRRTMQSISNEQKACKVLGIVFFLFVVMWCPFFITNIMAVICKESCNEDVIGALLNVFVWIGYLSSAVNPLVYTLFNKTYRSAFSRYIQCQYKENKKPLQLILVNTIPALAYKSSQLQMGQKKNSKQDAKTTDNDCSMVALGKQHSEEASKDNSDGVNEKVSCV

SMILES: c1ccc2c(c1)[nH]c1c[n+](CCCCCCCCCCCC[n+]3ccc4c(c3)[nH]c3ccccc34)ccc12
- IC50 (Acetylcholinesterase): 86000 nM
- IC50 (Cholinesterase): 1800 nM
- IC50 [1]: 1800 nM

SMILES: O=C(CCCCCN1CC(=O)N2[C@H](c3ccc(Br)cc3)c3[nH]c4ccccc4c3C[C@@H]2C1=O)NO
- IC50 [2]: 7 nM
- IC50 (Histone deacetylase): 61 nM

SMILES: C[n+]1ccc2c3ccccc3n(CCc3ccccc3)c2c1
- IC50 (Acetylcholinesterase): 0.5 nM
- IC50 (Cholinesterase): 5000 nM
- IC50 [1]: 5000 nM

SMILES: COC(=O)C1=CN2CCc3c([nH]c4ccccc34)[C@@H]2C[C@H]1C1=CCOC1=O
- IC50 [3]: 34000 nM

SMILES: COc1ccc2[nH]c3c(c2c1)CCN=C3C
- Ki [4]: 4200 nM
- Ki [5]: > 10000 nM
- Ki [6]: > 10000 nM

SMILES: COc1ccc2c3cc[n+](C)c(C)c3n(C)c2c1
- Ki [7]: 69 nM and 15 nM

SMILES: C/C=C(\C=O)[C@@H]1C[C@H]2c3[nH]c4ccccc4c3CCN2C=C1C(=O)OC [ISOVALLESIACHOTAMINE]
- IC50 [8]: 870 nM
- IC50 [3]: 130000 nM

SMILES: O=C(NO)c1cnc(N2CCC(CN3CC(=O)N4C(Cc5c([nH]c6ccccc56)C4c4ccc5c(c4)OCO5)C3=O)CC2)nc1 (stereo not drawn)
- IC50 [2]: 310 nM
- IC50 (Histone deacetylase 1): 80 nM
- IC50 [9]: 80 nM

SMILES: CCCCc1ccc[n+](CC(=O)Nc2ccc3cc4c5[nH]c6ccccc6c5ccn4c(=O)c3c2)c1
- inhibition [10]: 93%

SMILES: O=C(CCCCN1CC(=O)N2[C@H](c3ccc(Br)cc3)c3[nH]c4ccccc4c3C[C@@H]2C1=O)NO
- IC50 [2]: 7 nM
- IC50 (Histone deacetylase): 61 nM

SMILES: CCCCn1c2cc(OCc3cn(Cc4ccccc4Cl)nn3)ccc2c2ccnc(C)c21
- IC50 [8]: 430 nM
- IC50 [3]: 360 nM

SMILES: O=C(CCCCCCN1CC(=O)N2[C@H](c3ccc(Cl)cc3)c3[nH]c4ccccc4c3C[C@@H]2C1=O)NO
- IC50 [2]: 126 nM
- IC50 (Histone deacetylase): 9.1 nM

SMILES: COc1ccc2c3c(n(C)c2c1)C(C)=[N+](C)CC3
- Ki [7]: 140 nM

SMILES: CCCc1ccc[n+](CC(=O)Nc2ccc3cc4c5[nH]c6ccccc6c5ccn4c(=O)c3c2)c1
- inhibition [10]: 93%

SMILES: Oc1cccc2c1[nH]c1c(C3=C[C@@]4(O)CC/C=C\CCCCN5CCC3[C@]3(C[C@@H]6/C=C\CCCCN6[C@H]34)C5)nccc12 (stereo partly drawn)
- IC50 [11]: 4800 nM

Reference: ChEMBL document CHEMBL5233266, “β-Carboline as a Privileged Scaffold for Multitarget Strategies in Alzheimer's Disease Therapy” (J Med Chem, 2021)
